Laboratory results: ChEMBL document CHEMBL1201862, “PubChem BioAssay data set” (2004)
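Five compound concentrations were applied to cells in 96-well plates for 48 hours; endpoints were derived by simple linear interpolation of the resulting dose-response curve. GI50 is the concentration that inhibits growth by half.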 Calls of active or inactive are those of the source. Rule as the data show it: active = GI50 up to about 1.1 µM and inactive = higher.

Tests used:
Experiment in all cases: inhibition of tumour cell growth, NCI panel, 48 h
786-0 = test system: 786-0
DMS-114 = test system: DMS-114
HL-60 = test system: HL-60
HOP-92 = test system: HOP-92
KM12 = test system: KM12
MOLT-4 = test system: MOLT-4
Malme-3M = test system: Malme-3M
NCI-H226 = test system: NCI-H226
NCI-H522 = test system: NCI-H522
OVCAR-3 = test system: OVCAR-3
SF-295 = test system: SF-295
SK-MEL-5 = test system: SK-MEL-5
SN12C = test system: SN12C
TK-10 = test system: TK-10
UACC-257 = test system: UACC-257
EKVX = test system: EKVX
BT-549 = test system: BT-549
MDA-MB-231 = test system: MDA-MB-231
NCI/ADR-RES = test system: NCI/ADR-RES

Row | SMILES | GI50 (786-0) | GI50 (DMS-114) | GI50 (HL-60) | GI50 (HOP-92) | GI50 (KM12) | GI50 (MOLT-4) | GI50 (Malme-3M) | GI50 (NCI-H226) | GI50 (NCI-H522) | GI50 (OVCAR-3) | GI50 (SF-295) | GI50 (SK-MEL-5) | GI50 (SN12C) | GI50 (TK-10) | GI50 (UACC-257) | GI50 (EKVX) | GI50 (BT-549) | GI50 (MDA-MB-231) | GI50 (NCI/ADR-RES)
1 | S=C1CNC(=S)CN1 | > 100 µM (inactive) | > 100 µM (inactive) | > 100 µM (inactive) | > 100 µM (inactive) | > 100 µM (inactive) | > 100 µM (inactive) | > 100 µM (inactive) | > 100 µM (inactive) | > 100 µM (inactive) | > 100 µM (inactive) | > 100 µM (inactive) | > 100 µM (inactive) | > 100 µM (inactive) | > 100 µM (inactive) | > 100 µM (inactive) | – | – | – | –
2 | CC(=O)Oc1ccc2c(c1)C(=O)c1nc(C)c(C)nc1C2=O | 37.2 µM (inactive) | 34.8 µM (inactive) | 24.6 µM (inactive) | > 87.1 µM (inactive) | 59.3 µM (inactive) | 41.8 µM (inactive) | 19.5 µM (inactive) | 38.7 µM (inactive) | 50.6 µM (inactive) | 21.4 µM (inactive) | 49.9 µM (inactive) | 16.2 µM (inactive) | 46.5 µM (inactive) | > 100 µM (inactive) | 36.6 µM (inactive) | > 48.6 µM (inactive) | – | – | –
3 | CC(C)=CC(=O)Cc1nc2ccc([N+](=O)[O-])cc2[nH]c1=O | > 100 µM (inactive) | 51.3 µM (inactive) | 40.8 µM (inactive) | > 100 µM (inactive) | – | 25.2 µM (inactive) | > 100 µM (inactive) | > 100 µM (inactive) | 23.9 µM (inactive) | > 100 µM (inactive) | > 100 µM (inactive) | 22.6 µM (inactive) | > 100 µM (inactive) | > 100 µM (inactive) | > 100 µM (inactive) | > 100 µM (inactive) | – | – | –
4 | COc1ccc(SS(=O)(=O)c2ccc(OC)cc2)cc1 | 17.2 µM (inactive) | 16 µM (inactive) | 2.24 µM (inactive) | 35.9 µM (inactive) | 16.5 µM (inactive) | 13.2 µM (inactive) | 33.3 µM (inactive) | 23.6 µM (inactive) | 15.3 µM (inactive) | 18.2 µM (inactive) | 19.5 µM (inactive) | 15.2 µM (inactive) | 20.3 µM (inactive) | 23.3 µM (inactive) | 22.9 µM (inactive) | 21.1 µM (inactive) | – | – | –
5 | O=[N+]([O-])c1ccc(Cl)c(C2SCc3nc4ccccc4n32)c1 (centres undefined) | 72.3 µM (inactive) | 37 µM (inactive) | 23.2 µM (inactive) | 16.1 µM (inactive) | 29 µM (inactive) | 24.2 µM (inactive) | 44.1 µM (inactive) | 24.1 µM (inactive) | 22.3 µM (inactive) | 36.6 µM (inactive) | 32.6 µM (inactive) | 16.5 µM (inactive) | 43.6 µM (inactive) | 64.6 µM (inactive) | 28.1 µM (inactive) | 42.4 µM (inactive) | – | – | –
6 | O=C(CC1(O)C(=O)Nc2ccccc21)c1ccc(F)cc1 (centres undefined) | > 100 µM (inactive) | > 100 µM (inactive) | > 100 µM (inactive) | > 100 µM (inactive) | – | > 100 µM (inactive) | > 100 µM (inactive) | > 100 µM (inactive) | > 100 µM (inactive) | > 100 µM (inactive) | > 100 µM (inactive) | > 100 µM (inactive) | > 100 µM (inactive) | > 100 µM (inactive) | > 100 µM (inactive) | > 100 µM (inactive) | – | – | –
7 | Cc1ccc(N2C(=O)/C(=C/c3ccc(N(CCC#N)CCC#N)cc3C)N=C2c2cc([N+](=O)[O-])ccc2Cl)cc1 | > 100 µM (inactive) | 75.2 µM (inactive) | > 100 µM (inactive) | > 100 µM (inactive) | > 100 µM (inactive) | 91.2 µM (inactive) | > 100 µM (inactive) | > 100 µM (inactive) | > 100 µM (inactive) | > 100 µM (inactive) | > 100 µM (inactive) | > 100 µM (inactive) | > 100 µM (inactive) | > 100 µM (inactive) | > 100 µM (inactive) | – | – | – | –
8 | O=C1NC(=O)C2C1C1C=C3c4ccccc4N(c4ccccc4)C32[C@H]2C(=O)NC(=O)[C@@H]12 (some centres undefined) | > 100 µM (inactive) | > 100 µM (inactive) | > 100 µM (inactive) | > 100 µM (inactive) | > 100 µM (inactive) | > 100 µM (inactive) | > 100 µM (inactive) | > 100 µM (inactive) | > 100 µM (inactive) | > 100 µM (inactive) | > 100 µM (inactive) | > 100 µM (inactive) | > 100 µM (inactive) | > 100 µM (inactive) | > 100 µM (inactive) | > 100 µM (inactive) | – | – | –
9 | CC(c1ccc2c(c1)CCC1C2CC2OC23CC=CC(=O)[C@]13C)C1C[C@]2(C)O[C@]2(C)[C@H](O)O1 (some centres undefined) | > 100 µM (inactive) | 0.429 µM (active) | 1.96 µM (inactive) | 92.9 µM (inactive) | 36.6 µM (inactive) | 13.4 µM (inactive) | 71.4 µM (inactive) | 12.1 µM (inactive) | 14 µM (inactive) | 19.2 µM (inactive) | – | 11 µM (inactive) | > 100 µM (inactive) | > 100 µM (inactive) | 11.1 µM (inactive) | 5.48 µM (inactive) | – | – | –
10 | Nc1nc(=O)n([C@@H]2CC[C@H](CO)O2)cc1F | > 100 µM (inactive) | > 100 µM (inactive) | > 100 µM (inactive) | > 100 µM (inactive) | > 100 µM (inactive) | > 100 µM (inactive) | > 100 µM (inactive) | > 100 µM (inactive) | > 100 µM (inactive) | > 100 µM (inactive) | > 100 µM (inactive) | > 100 µM (inactive) | > 100 µM (inactive) | > 100 µM (inactive) | > 100 µM (inactive) | > 100 µM (inactive) | – | – | –
11 | COc1cc(NS(C)(=O)=O)ccc1Nc1c2ccccc2nc2ccccc12 [AMSACRINE] | 0.15 µM (active) | 0.184 µM (active) | 0.0519 µM (active) | 0.524 µM (active) | 1.44 µM (inactive) | 0.0332 µM (active) | 0.611 µM (active) | 0.125 µM (active) | 0.668 µM (active) | 2.67 µM (inactive) | 0.104 µM (active) | 0.319 µM (active) | 0.131 µM (active) | 2.63 µM (inactive) | 2.95 µM (inactive) | 2.08 µM (inactive) | 1.04 µM (active) | 2.41 µM (inactive) | 3.42 µM (inactive)
